Results on 13 compounds are retold here after patent US20250296938A1, “Compounds that Interact with the Ras Superfamily for the Treatment of Cancers, Inflammatory Diseases, Rasopathies, and Fibrotic Disease” (SHY Therapeutics, LLC, priority 2018, published 2025).

Experiment [1] has as its target GTP binding domain of Ras. The settings on record: literature (Feuerstein 1987; John 1990); cited from earlier work.
Experiment [2] deals with MEK phosphorylation. The experiment in a line: Western MEK cell-based phosphorylation assay, PANC-1. The settings on record: Homo sapiens. On the procedure:
(§1) Cell lines: Human NSCLC cells NCI-H1975 and tumor-derived pancreatic cancer cell lines Panc-1 and MIA-PaCa-2 were all purchased from American Type Culture Collection and grown in complete RPMI medium (NCI-H1975) or DMEM-High Glucose (Panc1 and MIA-PaCa-2), supplemented with penicillin (100 U/mL), streptomycin (100 μg/mL), and 10% heat-inactivated FBS at 37° C. in a humidified incubator with 5% CO2.
Method: Cells were plated at 350000 cells/well density in a 12-well plate, allowed 3 hours to adhere to the plate, then starved in the appropriate medium in the presence of 0.5% FBS overnight. The small molecules to be tested were added to the cells in the final concentration of 10 μM in the presence of 0.3% DMSO for 6 hours incubation at 37° C. For IC50 value determination, serial dilutions of compounds were added to cells under the same conditions. Next, cells were stimulated with 1.5 ng/ml EGF for 15 minutes then cells were lysed with lysis buffer containing 1% Triton X-100, EDTA, and Halt™ Protease & Phosphatase Inhibitor Cocktail (Thermo Scientific). Protein concentration was assessed by BCA protein assay (Thermo Scientific). Phosphorylation level of MEK was determined by western blot.
Western blot protocol: Equal amounts of protein (15-50 μg) were separated by SDS-PAGE and transferred to nitrocellulose membranes (Invitrogen by Thermo Fisher Scientific). The membrane was stained with Ponceau S Stain (Boston BioProducts) to verify uniform protein loading. Membranes were blocked with 10% milk and phosphorylation levels of MEK were assessed by incubating overnight at 4° C. with anti-phospho-MEK 1/2 (Ser217/Ser221) antibody (Cell Signaling) followed by HRP-conjugated secondary antibody (Jackson Immunoresearch, West Grove, PA). Bands were incubated in Amersham ECL Prime Western Blotting Detection Reagent (GE Healthcare) and visualized using the ChemiDoc MP imaging system (Bio-Rad).

The subject of experiment [3] is MEK phosphorylation. As to the kind of experiment: Western MEK cell-based phosphorylation assay, NCI H1975. The conditions noted are these: Homo sapiens. On the procedure:
as §1
(§2) Method: Cells were plated at 350000 cells/well density in a 12-well plate, allowed 3 hours to adhere to the plate, then starved in the appropriate medium in the presence of 0.5% FBS overnight. The small molecules to be tested were added to the cells in the final concentration of 10 μM in the presence of 0.3% DMSO for 6 hours incubation at 37° C. […] Protein concentration was assessed by BCA protein assay (Thermo Scientific). Phosphorylation level of MEK was determined by western blot.
(§3) Western blot protocol: Equal amounts of protein (15-50 μg) were separated by SDS-PAGE and transferred to nitrocellulose membranes (Invitrogen by Thermo Fisher Scientific). […] Membranes were blocked with 10% milk and phosphorylation levels of MEK were assessed by incubating overnight at 4° C. with anti-phospho-MEK 1/2 (Ser217/Ser221) antibody (Cell Signaling) followed by HRP-conjugated secondary antibody (Jackson Immunoresearch, West Grove, PA). […]

In experiment [4] the test system is MEK phosphorylation. The experiment in a line: Western MEK cell-based phosphorylation assay, MIA PaCa-2. The settings on record: Homo sapiens. As to the method:
as §1, §2, §3

Experiment [5] relates to NCI H1299 non-small-cell lung cancer cell line. The experiment in a line: Cell proliferation assay (DAPI). It counts as cell-based. The settings on record: Homo sapiens.
Experiment [6] deals with PANC-1 pancreatic cancer cell line. The experiment in a line: Cell proliferation assay (DAPI). In kind it is cell-based. The settings on record: Homo sapiens. An outline of the steps:
(§4)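 NCI-H1975 cells in RPMI; PANC-1 and MIA PaCa-2 in DMEM-high glucose; BxPC3 in RPMI; all with 10% FBS. Compounds at 10 µM final (or serial dilutions for IC50), 0.3% DMSO, 2–4 days at 37 °C. Fixed, DAPI-stained, fluorescence read at 358/461 nm to give proliferation inhibition.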

For experiment [7], the system named is NCI H1975 non-small-cell lung cancer cell line. As to the kind of experiment: Cell proliferation assay (DAPI). In kind it is cell-based. The conditions noted are these: Homo sapiens. An outline of the steps: as §4
Experiment [8] has as its system BxPC3 pancreatic cancer cell line. The experiment in a line: Cell proliferation assay (DAPI). In kind it is cell-based. The conditions noted are these: Homo sapiens, BXPC-3. The method, boiled down: as §4
Experiment [9] has as its system MIA PaCa-2 pancreatic cancer cell line. As to the kind of experiment: Cell proliferation assay (DAPI). It counts as cell-based. The conditions noted are these: Homo sapiens, MIA PaCa-2; for inhibition at 10 µM: 2-4 days, read-out: % Inhibition of cell proliferation, MIA PaCa-2 % inh. The method, boiled down:
as §4

Experiment [10] relates to GTP-bound RAS. The experiment in a line: Cell-based Ras-GTP pulldown assay, PANC-1. The conditions noted are these: Homo sapiens; for inhibition at 10 µM: 6 hours, EGF stimulation. As to the method: (§5) Cell lines: Human NSCLC cells NCI-H1975, and tumor-derived pancreatic cancer cell lines Panc-1, and MIA-PaCa-2, were all purchased from American Type Culture Collection and grown in complete RPMI medium (NCI-H1975) or DMEM-High Glucose (Panc1 and MIA-PaCa-2), supplemented with penicillin (100 U/mL), streptomycin (100 μg/mL), and 10% heat-inactivated FBS at 37° C. in a humidified incubator with 5% CO2.
(§6) Method: Cells were plated at 2·10^6 cells/well density in a 6-well plate, allowed 3 hours to adhere to the plate, then starved in the appropriate medium in the presence of 0.5% FBS overnight. The small molecules to be tested were added to the cells in the final concentration of 10 μM in the presence of 0.3% DMSO for 6 hours incubation at 37° C. For IC50 value determination, serial dilutions of compounds were added to cells under the same conditions. Next, cells were stimulated with 5 ng/mL EGF for 5 minutes, rinsed with ice-cold PBS and then lysed with 500 μL of lysis/binding/wash buffer (25 mM Tris-HCl, pH 7.2, 150 mM NaCl, 5 mM MgCl2, 5% glycerol, 1% NP40) from Active Ras Detection kit (Cell signaling Technology, #8821) supplemented with Halt™ Protease & Phosphatase Inhibitor Cocktail (Thermo Scientific). To account for significant differences in cell number due to the treatment, a small sample of lysate was saved for protein quantification and the rest of the lysate was snap frozen. Protein concentration was assessed by BCA protein assay (Thermo Scientific). To ensure that equal amount of protein undergoes RBD pulldown, lysates were subsequently thawed (at RT) and adjusted to 1 mg/mL with lysis/binding/wash buffer (0.5 mL volume). Equal amounts of lysate were then added to 0.5 mL lysis buffer containing RAF-RBD (1 mL total volume). Lysates were vortexed, incubated for 10 min on ice and subsequently pre-cleared at 14,000 rpm for 5 min at 4° C. 90% of the pre-cleared lysates were subsequently added to pre-washed glutathione agarose beads from Active Ras Detection kit (Cell signaling Technology, #8821) for 1 hour at 4 °C under constant rocking. The beads were subsequently pelleted, washed 3 times with lysis/binding/wash buffer, and eluted for western blotting with 50 μL of 1×SDS-PAGE sample buffer. Level of GTP-bound RAS was determined by western blot.
(§7) Western blot protocol: Equal volumes of eluate (25 μL) were separated by 16% SDS-PAGE and transferred to nitrocellulose membranes (Invitrogen by Thermo Fisher Scientific). The membrane was stained with Ponceau S Stain (Boston BioProducts) to verify uniform protein loading. […]

In experiment [11] the test system is GTP-bound RAS. The experiment in a line: Cell-based Ras-GTP pulldown assay, MIA PaCa-2. The settings on record: Homo sapiens; for inhibition at 10 µM: 6 hours, EGF stimulation. On the procedure:
as §5, §6
Western blot protocol: Equal volumes of eluate (25 μL) were separated by 16% SDS-PAGE and transferred to nitrocellulose membranes (Invitrogen by Thermo Fisher Scientific). The membrane was stained with Ponceau S Stain (Boston BioProducts) to verify uniform protein loading. Membranes were blocked with 5% BSA in TBST and then incubated overnight at 4° C. with anti-RAS mouse monoclonal antibody from the Active Ras Detection kit (Cell signaling Technology, #8821), followed by HRP-conjugated secondary antibody (Jackson Immunoresearch, West Grove, PA). Membranes were incubated in Amersham ECL Prime Western Blotting Detection Reagent (GE Healthcare) and bands were visualized using the ChemiDoc MP imaging system (Bio-Rad).

Experiment [12] concerns GTP-bound RAS. The experiment in a line: Cell-based Ras-GTP pulldown assay, NCI H1975. The settings on record: Homo sapiens; for inhibition at 10 µM: 6 hours, EGF stimulation. On the procedure: as §5, §6, §7

Molecules are shown by their SMILES.

For `Nc1nc2c(ncn2[C@@H]2O[C@H](COP(=O)(O)OP(=O)(O)O)[C@@H](O)[C@H]2O)c(=O)[nH]1` [GDP], the “affinity for the GTP binding domain of Ras” value in experiment [1] is on record as “single to double digit picomolar”.

Take `COCCNc1nc(-c2nccn2C)nc2sc(-c3cccc(OC)c3Cl)c(-c3ccccc3)c12` [drawing 476]: the IC50 in the experiment on MEK phosphorylation [2] was 750 to 1000 nM; in the experiment on MEK phosphorylation [3] it was above 1000 nM; in the experiment with MEK phosphorylation [4], 750 to 1000 nM.

In the experiment on MEK phosphorylation [2], `COc1cccc(-c2sc3nc(-c4nccn4C)nc(N4CCC(OC)C4)c3c2-c2ccccc2)c1F` (stereo not drawn) [drawing 477] registered a half-maximal inhibitory concentration (IC50) above 1000 nM.

On to `CO[C@H]1CCC(Nc2nc(-c3nccn3C)nc3sc(-c4ccn(C)n4)c(-c4ccccc4)c23)C1` (stereo partly drawn) [drawing 478], for which the IC50 in the experiment with MEK phosphorylation [2] was 750 to 1000 nM; in the experiment with MEK phosphorylation [3], above 1000 nM; in the experiment on MEK phosphorylation [4], above 1000 nM.

For `CO[C@H]1CCC(Nc2nc(-c3nccn3C)nc3sc(-c4ccn(C)n4)c(-c4ccccc4)c23)C1` (stereo partly drawn) [drawing 548], the IC50 in [5] was 750 to 1000 nM; in [6], 500 to 749 nM; in [7], 500 to 749 nM; in experiment [8], 500 to 749 nM; in [9] it was 500 to 749 nM. The inhibition at 10 µM in experiment [9] is 76 to 100%.

As to `CO[C@@H]1CCC(Nc2nc(-c3nccn3C)nc3sc(-c4ccn(C)n4)c(-c4ccccc4)c23)C1` (stereo partly drawn) [drawing 549], the concentration for half-maximal inhibition (IC50) in experiment [5], in [6], in [7], in experiment [8] and in experiment [9] was 750 to 1000 nM throughout. Besides, in experiment [9], the inhibition at 10 µM was in the range of 76 to 100%.

Take `COCC1CCN(c2nc(-c3nccn3C)nc3sc(-c4ccn(C)n4)c(-c4ccccc4)c23)C1` (stereo not drawn) [drawing 550]: the half-inhibitory concentration (IC50) in experiment [5] is above 1000 nM; in [6], 500 to 749 nM; in experiment [7] it was above 1000 nM; in [8] it was 750 to 1000 nM; in experiment [9], 750 to 1000 nM. Also, in experiment [9], the inhibition at 10 µM fell in the range of 76 to 100%.

As for `COCCNc1nc(-c2nccn2C)nc2sc(-c3cccc(OC)c3Cl)c(-c3ccc(OC)cc3)c12` [drawing 562], the IC50 in [5] is 750 to 1000 nM; in experiment [6], 500 to 749 nM; in [7], 750 to 1000 nM; in experiment [8] it was 750 to 1000 nM; in [9] it was 750 to 1000 nM. The inhibition at 10 µM in experiment [9] is 76 to 100%.

Consider `COCCNc1nc(-c2nccn2C)nc2sc(-c3cccc(OC)c3Cl)c(-c3ccccc3)c12` [drawing 1076], for which the inhibition at 10 µM in the experiment with GTP-bound RAS [10], with GTP-bound RAS [11] and with GTP-bound RAS [12] was 76 to 100% throughout.

For the compound `CO[C@H]1CCC(Nc2nc(-c3nccn3C)nc3sc(-c4ccn(C)n4)c(-c4ccccc4)c23)C1` (stereo partly drawn) [drawing 1077], the inhibition at 10 µM in the experiment on GTP-bound RAS [10], in the experiment with GTP-bound RAS [11] and in the experiment with GTP-bound RAS [12] was 76 to 100% each time.

Take `CO[C@H]1CC[C@@H](Nc2nc(-c3nccn3C)nc3sc(-c4ccn(C(C)C)n4)c(C4=CC=CCC=C4)c23)C1` [drawing 1078]: in the experiment on GTP-bound RAS [11], the inhibition at 10 µM was 76 to 100%.

As for `COCCNc1nc(-c2nccn2C)nc2sc(-c3cccc(OC)c3Cl)c(-c3ccccc3)c12` [drawing 1079], the half-inhibitory concentration (IC50) is 750 to 1000 nM in the experiment on GTP-bound RAS [10], 750 to 1000 nM with GTP-bound RAS [11] and above 1000 nM in the experiment with GTP-bound RAS [12].

For `CO[C@H]1CCC(Nc2nc(-c3nccn3C)nc3sc(-c4ccn(C)n4)c(-c4ccccc4)c23)C1` (stereo partly drawn) [drawing 1080], the IC50 was 750 to 1000 nM in the experiment with GTP-bound RAS [10], above 1000 nM in the experiment with GTP-bound RAS [11] and above 1000 nM in the experiment on GTP-bound RAS [12].
